“And” between values parts separate entries of the source, which are not always exact repeats. Equal values may be shown once. Read-outs that look alike come from different tables or passages of the source.

Six compounds from US8119695B2, “Compounds and methods for treating breast cancer and other diseases” (City of Hope, priority 2003, dated 2012) can be followed below.

What all share (type): cell-based
One test relates to ERE-TK-luc. Briefly: ERE-TK-luc reporter without receptor, E2 100 nM.
The subject of another test is MH100x4. Briefly: MH100x4 luciferase reporter without receptor. From the text:
(§1) MH100x4 is a luciferase reporter with four copies of a GAL4 […] response element. GAL-L refers to the ligand-binding domain of the indicated receptor fused to the C-terminus of the GAL4 DNA binding domain.

The test system of another test is ERRα (GAL-ERRa). Briefly: MH100x4 luciferase reporter with GAL-ERRa. Also on record: Reporter Activity: unit not given here.
Excerpt: as §1
A general note: In a reporter assay the amount or activity of a reporter protein is the signal.

The next test deals with T1, ERRβ (GAL-L-ERRb) (Homo sapiens, UniProt O95718).
T1 construct: expressed in transfected cells
T1 sequence (O95718 208-432 limits assumed): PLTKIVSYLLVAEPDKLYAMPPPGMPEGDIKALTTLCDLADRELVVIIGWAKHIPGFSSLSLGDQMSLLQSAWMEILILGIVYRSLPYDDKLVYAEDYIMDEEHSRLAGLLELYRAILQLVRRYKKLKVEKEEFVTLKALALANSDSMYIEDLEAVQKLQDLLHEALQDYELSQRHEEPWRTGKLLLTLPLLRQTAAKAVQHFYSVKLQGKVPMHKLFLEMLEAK
Briefly: MH100x4 luciferase reporter with GAL-L-ERRb. More on the design: Reporter Activity: unit not given here.
Excerpt: as §1

In another test the test system is ERRγ (GAL-ERRg). Briefly: MH100x4 luciferase reporter with GAL-ERRg. More on the design: Reporter Activity: unit not given here.
Excerpt: as §1

Setting [1] is: Table 4, DY39 dose head 0 (1st of 2), None 1.
The mark [2] stands for this setting: Table 4, DY39 dose head 0 (2nd of 2), None 1.
[3] abbreviates: Table 2, dose 5 (unit not given), None 0.49.
The mark [4] stands for this setting: Table 2, dose 5 (unit not given), None 1.00.
Setting [5] is: Table 2, dose 5 (unit not given), None 8.54.
The mark [6] stands for this setting: Table 2, dose 5 (unit not given), None 1.44.
[7] abbreviates: Table 2, dose 5 (unit not given), None 1.25.

With `CC/C(=C(\c1ccc(O)cc1)c1ccc(OCCN(C)C)cc1)c1ccccc1` [4-OH Tamoxifen, (Z)-4-hydroxytamoxifen, reference compound], the “Reporter Activity” value in the test with ERE-TK-luc was 1.2 and 0.98 and 1.58 and 1.48 and 1.61 and 1.34.
Consider `CC(C)CC(=C(c1ccc(O)cc1)c1ccc(OCCN(C)C)cc1)c1ccccc1` (mixture of isomers) [DY39], for which the “Fold Activation” value stood at 1.08 with MH100x4 (setting [1]); 0.89 with MH100x4 (setting [2]); 0.96 in the test on MH100x4 (Table 4, dose 0.1 (unit not given), None 1/1.03); 0.96 with MH100x4 (Table 4, dose 0.3 (unit not given), None 1/1.03); 0.8 with MH100x4 (Table 4, dose 1 (unit not given), None 1/1.03); 0.73 in the test with MH100x4 (Table 4, dose 3 (unit not given), None 1/1.03). For the same compound, the “Fold Activation” value in the test with ERRα (GAL-ERRa) (setting [1]) is reported as 1.09; with ERRα (GAL-ERRa) (setting [2]), 0.95; in the test on ERRα (GAL-ERRa) (Table 4, dose 0.1 (unit not given), None 1/1.23), 1.08; in the test on ERRα (GAL-ERRa) (Table 4, dose 0.3 (unit not given), None 1/1.23), 1.09; in the test with ERRα (GAL-ERRa) (Table 4, dose 1 (unit not given), None 1/1.23), 1.2; with ERRα (GAL-ERRa) (Table 4, dose 3 (unit not given), None 1/1.23), 1.31. Besides, the “Fold Activation” value at ERRβ (GAL-L-ERRb) (setting [1]) was 1.25; on ERRβ (GAL-L-ERRb) (setting [2]) it was 1.04; on ERRβ (GAL-L-ERRb) (Table 4, dose 0.1 (unit not given), None 1/1.2), 1.2; at ERRβ (GAL-L-ERRb) (Table 4, dose 0.3 (unit not given), None 1/1.2) it was 0.95; on ERRβ (GAL-L-ERRb) (Table 4, dose 1 (unit not given), None 1/1.2), 0.4; on ERRβ (GAL-L-ERRb) (Table 4, dose 3 (unit not given), None 1/1.2), 0.28. Further, the “Fold Activation” value turned out to be 0.94 in the test on ERRγ (GAL-ERRg) (setting [1]); 0.96 in the test with ERRγ (GAL-ERRg) (setting [2]); 0.94 in the test on ERRγ (GAL-ERRg) (Table 4, dose 0.1 (unit not given), None 1/1.01); 0.91 with ERRγ (GAL-ERRg) (Table 4, dose 0.3 (unit not given), None 1/1.01); 0.5 with ERRγ (GAL-ERRg) (Table 4, dose 1 (unit not given), None 1/1.01); 0.3 in the test with ERRγ (GAL-ERRg) (Table 4, dose 3 (unit not given), None 1/1.01). The “Reporter Activity” value was determined as 1.23 with MH100x4 (Table 4, DY39 dose head 0 (1st of 2), None 1.14); 1.02 in the test with MH100x4 (Table 4, DY39 dose head 0 (2nd of 2), None 1.14); 1.1 in the test with MH100x4 (Table 4, dose 0.1 (unit not given), None 1.14/1.17); 1.09 in the test with MH100x4 (Table 4, dose 0.3 (unit not given), None 1.14/1.17); 0.9 in the test with MH100x4 (Table 4, dose 1 (unit not given), None 1.14/1.17); 0.83 in the test with MH100x4 (Table 4, dose 3 (unit not given), None 1.14/1.17). Also, the “Reporter Activity” value turned out to be 30.2 with ERRα (GAL-ERRa) (Table 4, DY39 dose head 0 (1st of 2), None 27.7); 26.4 in the test on ERRα (GAL-ERRa) (Table 4, DY39 dose head 0 (2nd of 2), None 27.7); 30 in the test with ERRα (GAL-ERRa) (Table 4, dose 0.1 (unit not given), None 27.7/34.05); 30.1 in the test with ERRα (GAL-ERRa) (Table 4, dose 0.3 (unit not given), None 27.7/34.05); 33 in the test on ERRα (GAL-ERRa) (Table 4, dose 1 (unit not given), None 27.7/34.05); 36.2 in the test on ERRα (GAL-ERRa) (Table 4, dose 3 (unit not given), None 27.7/34.05). In addition, the “Reporter Activity” value on ERRβ (GAL-L-ERRb) (Table 4, DY39 dose head 0 (1st of 2), None 7.21) was found to be 9.02; at ERRβ (GAL-L-ERRb) (Table 4, DY39 dose head 0 (2nd of 2), None 7.21) it was 7.53; on ERRβ (GAL-L-ERRb) (Table 4, dose 0.1 (unit not given), None 7.21/8.67), 8.63; at ERRβ (GAL-L-ERRb) (Table 4, dose 0.3 (unit not given), None 7.21/8.67), 6.84; at ERRβ (GAL-L-ERRb) (Table 4, dose 1 (unit not given), None 7.21/8.67) it was 2.9; at ERRβ (GAL-L-ERRb) (Table 4, dose 3 (unit not given), None 7.21/8.67), 1.99. Moreover, the “Reporter Activity” value was 5.14 in the test with ERRγ (GAL-ERRg) (Table 4, DY39 dose head 0 (1st of 2), None 5.49); 5.25 with ERRγ (GAL-ERRg) (Table 4, DY39 dose head 0 (2nd of 2), None 5.49); 5.18 in the test with ERRγ (GAL-ERRg) (Table 4, dose 0.1 (unit not given), None 5.49/5.56); 4.97 with ERRγ (GAL-ERRg) (Table 4, dose 0.3 (unit not given), None 5.49/5.56); 2.7 in the test with ERRγ (GAL-ERRg) (Table 4, dose 1 (unit not given), None 5.49/5.56); 1.67 in the test on ERRγ (GAL-ERRg) (Table 4, dose 3 (unit not given), None 5.49/5.56). The “inhibition of the activity of ERRβ” value against ERRβ (GAL-L-ERRb) (result in words) is “inhibit the activity”. For the same compound, the “inhibition of the activity of ERRγ” value with ERRγ (GAL-ERRg) (result in words) is on record as “inhibit the activity”.
Take `C=CCc1cc(C(CC)=C(CC)c2ccc(O)c(CC=C)c2)ccc1O` [DY22]: the “Reporter Activity” value in the test on MH100x4 (setting [3]) worked out at 0.28; with ERRα (GAL-ERRa) (setting [5]), 3.35; on ERRβ (GAL-L-ERRb) (setting [6]) it was 0.64; in the test on ERRγ (GAL-ERRg) (setting [7]), 0.63. Moreover, the “Fold Activation” value is on record as 0.57 in the test with MH100x4 (setting [4]), 0.39 in the test with ERRα (GAL-ERRa) (setting [4]), 0.44 on ERRβ (GAL-L-ERRb) (setting [4]) and 0.50 with ERRγ (GAL-ERRg) (setting [4]).
With `CCC(=C(CC)c1ccc(O)c(C=C(C)C)c1)c1ccc(O)cc1` [DY16], the “Reporter Activity” value in the test with MH100x4 (setting [3]) stood at 0.35; in the test with ERRα (GAL-ERRa) (setting [5]), 5.63; on ERRβ (GAL-L-ERRb) (setting [6]), 0.71; with ERRγ (GAL-ERRg) (setting [7]), 1.14. Moreover, the “Fold Activation” value in the test with MH100x4 (setting [4]) is given as 0.71; with ERRα (GAL-ERRa) (setting [4]), 0.66; on ERRβ (GAL-L-ERRb) (setting [4]), 0.49; in the test with ERRγ (GAL-ERRg) (setting [4]), 0.91.
Consider `CCC(=C(CC)c1ccc(Oc2cccc(C=O)c2)cc1)c1ccc(O)cc1` [DY19], for which the “Reporter Activity” value in the test with MH100x4 (setting [3]) is recorded as 0.37; with ERRα (GAL-ERRa) (setting [5]), 5.27; at ERRβ (GAL-L-ERRb) (setting [6]) it was 0.84; in the test on ERRγ (GAL-ERRg) (setting [7]), 1.02. For the same compound, the “Fold Activation” value in the test on MH100x4 (setting [4]) stood at 0.76; in the test with ERRα (GAL-ERRa) (setting [4]), 0.62; at ERRβ (GAL-L-ERRb) (setting [4]) it was 0.58; in the test on ERRγ (GAL-ERRg) (setting [4]) it was 0.82.
For `C[C@]12CC[C@@H]3c4ccc(O)cc4CC[C@H]3[C@@H]1CC[C@@H]2O` [E2, estradiol, reference compound], the “Reporter Activity” value with ERE-TK-luc came out at 1.13; in the test on ERE-TK-luc (Table 6, E2 100 nM alone (no dose head), None 1.44) it was 1.2.
